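48-hour exposure; five concentrations; linearly interpolated endpoints. GI50: concentration for 50% inhibition of growth.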 Active and inactive are the calls of the source. Rule as the data show it: active = GI50 up to about 1.1 µM and inactive = higher.
Experiments:
Experiment in all cases: growth of human tumour cells (NCI), 48 h
SK-MEL-2 = system: SK-MEL-2
A498 = system: A498
SK-OV-3 = system: SK-OV-3
HCT-116 = system: HCT-116
NCI-H522 = system: NCI-H522
SF-268 = system: SF-268
UACC-257 = system: UACC-257
IGROV-1 = system: IGROV-1
UACC-62 = system: UACC-62
HT-29 = system: HT-29
OVCAR-8 = system: OVCAR-8
SF-295 = system: SF-295
SK-MEL-28 = system: SK-MEL-28
HOP-92 = system: HOP-92
COLO 205 = system: COLO 205
NCI-H226 = system: NCI-H226
CAKI-1 = system: CAKI-1

Measured: GI50

Cc1c(-c2nnc(-c3ccc(Cl)cc3)o2)c(=O)n(-c2ccccc2)n1C
inactive: SK-MEL-2 > 100 µM | A498 > 100 µM | SK-OV-3 > 100 µM | HCT-116 > 100 µM | NCI-H522 > 100 µM | SF-268 > 100 µM | UACC-257 > 100 µM | IGROV-1 > 100 µM | UACC-62 > 100 µM | HT-29 > 100 µM | OVCAR-8 > 100 µM | SF-295 > 100 µM | SK-MEL-28 > 100 µM | HOP-92 > 100 µM | COLO 205 > 100 µM | NCI-H226 > 100 µM

C/C(=N\Nc1ccccc1)c1sc(-c2nc(C)c(/C(C)=N/Nc3ccccc3)s2)nc1C
inactive: CAKI-1 > 58.2 µM | SK-MEL-2 > 100 µM | A498 > 46.1 µM | SK-OV-3 58.5 µM | HCT-116 33.7 µM | NCI-H522 18.1 µM | UACC-257 35.1 µM | IGROV-1 14.1 µM | UACC-62 4.07 µM | HT-29 9.06 µM | OVCAR-8 33.4 µM | SF-295 9.98 µM | SK-MEL-28 > 48.2 µM | HOP-92 10.4 µM | COLO 205 8.24 µM | NCI-H226 40.4 µM

N#CCCN(CCC#N)c1ccc(/C=C2\N=C(COc3ccc(Cl)cc3Cl)OC2=O)cc1
inactive: CAKI-1 > 100 µM | SK-MEL-2 > 100 µM | A498 > 100 µM | SK-OV-3 > 100 µM | HCT-116 > 100 µM | NCI-H522 29.9 µM | SF-268 > 100 µM | UACC-257 > 100 µM | IGROV-1 > 100 µM | UACC-62 > 100 µM | HT-29 > 100 µM | OVCAR-8 > 100 µM | SF-295 > 100 µM | SK-MEL-28 > 100 µM | COLO 205 > 100 µM

CCOc1ccccc1/N=N/c1ccc2oc(=O)c(C(=O)Nc3cccc(C)c3)cc2c1
inactive: CAKI-1 49.8 µM | SK-MEL-2 19.8 µM | A498 42.5 µM | SK-OV-3 49.7 µM | HCT-116 20.2 µM | NCI-H522 17.9 µM | SF-268 29.4 µM | UACC-257 26.1 µM | IGROV-1 39.5 µM | UACC-62 26.2 µM | HT-29 36.2 µM | OVCAR-8 24.7 µM | SF-295 29.6 µM | SK-MEL-28 26 µM | COLO 205 26.7 µM

COC(=O)CC[C@]12C[C@]13CC[C@]1(C)C4C(C)C[C@]5(CC(C)C(=O)O5)OC4CC1(C)C3CCC2C(C)(C)O (stereo partly drawn)
inactive: SK-MEL-2 26.7 µM | A498 > 100 µM | SK-OV-3 > 100 µM | HCT-116 85.7 µM | NCI-H522 62.1 µM | SF-268 81.1 µM | UACC-257 67.1 µM | IGROV-1 65.6 µM | UACC-62 > 10 µM | HT-29 > 100 µM | OVCAR-8 41.7 µM | SF-295 > 100 µM | SK-MEL-28 84.9 µM | HOP-92 23.7 µM | COLO 205 74.8 µM

C[C@]12CCC(=O)C[C@H]1CCC(O)[C@@H]2Br (stereo partly drawn)
inactive: CAKI-1 > 100 µM | SK-MEL-2 > 100 µM | A498 > 100 µM | SK-OV-3 > 100 µM | HCT-116 > 100 µM | NCI-H522 > 100 µM | SF-268 > 100 µM | UACC-257 > 100 µM | IGROV-1 > 100 µM | UACC-62 > 100 µM | HT-29 > 100 µM | OVCAR-8 > 100 µM | SF-295 > 100 µM | SK-MEL-28 > 100 µM | HOP-92 > 100 µM | COLO 205 > 100 µM | NCI-H226 > 100 µM

CC(C)(C)c1ccccc1NS(=O)(=O)c1ccccc1
inactive: CAKI-1 64 µM | SK-MEL-2 > 100 µM | A498 > 100 µM | SK-OV-3 > 100 µM | HCT-116 48 µM | UACC-257 45.1 µM | IGROV-1 > 100 µM | UACC-62 > 100 µM | HT-29 66.7 µM | OVCAR-8 > 100 µM | SF-295 86.1 µM | SK-MEL-28 > 100 µM | NCI-H226 21.9 µM

CC1(C)C2CCC13C(=O)C1OC3(C2)C2C(=O)N(c3ccccc3)C(=O)C12 (stereo not drawn)
inactive: CAKI-1 > 100 µM | SK-MEL-2 > 100 µM | A498 > 100 µM | SK-OV-3 > 100 µM | HCT-116 > 100 µM | NCI-H522 20.1 µM | SF-268 > 100 µM | UACC-257 > 100 µM | IGROV-1 > 100 µM | UACC-62 > 100 µM | HT-29 51.4 µM | OVCAR-8 > 100 µM | SF-295 > 100 µM | COLO 205 > 100 µM | NCI-H226 > 100 µM

COc1ccc(O)cc1C=O
inactive: A498 > 100 µM | SK-OV-3 > 100 µM | HCT-116 50 µM | SF-268 > 100 µM | UACC-257 48.1 µM | IGROV-1 > 100 µM | UACC-62 32.7 µM | HT-29 > 100 µM | OVCAR-8 > 100 µM | SF-295 > 100 µM | SK-MEL-28 65.3 µM | HOP-92 > 100 µM | COLO 205 > 100 µM

NS(=O)(=O)c1ccc(NC(=O)c2cccn3c(=O)c4ccccc4nc23)cc1
inactive: CAKI-1 > 100 µM | A498 > 100 µM | SK-OV-3 > 100 µM | HCT-116 > 100 µM | NCI-H522 > 100 µM | SF-268 > 100 µM | UACC-257 > 100 µM | IGROV-1 > 100 µM | UACC-62 > 100 µM | HT-29 > 100 µM | OVCAR-8 > 100 µM | SF-295 > 100 µM | SK-MEL-28 > 100 µM | HOP-92 > 100 µM | COLO 205 > 100 µM | NCI-H226 > 100 µM

COC1=C(C)C(=O)c2c(cc3c(c2O)C(C)(CCC=C(C)C)C(C)O3)C1=O (stereo not drawn)
inactive: CAKI-1 > 100 µM | SK-MEL-2 30.2 µM | A498 16.3 µM | SK-OV-3 > 100 µM | HCT-116 > 100 µM | NCI-H522 > 100 µM | SF-268 > 100 µM | UACC-257 > 72.9 µM | IGROV-1 > 100 µM | UACC-62 22.3 µM | HT-29 37 µM | OVCAR-8 > 100 µM | SF-295 20.3 µM | SK-MEL-28 > 100 µM | HOP-92 > 100 µM | COLO 205 > 100 µM | NCI-H226 17.6 µM

CN(C)c1nnnn1-c1c(N)n(C)c(=O)n(C)c1=O
inactive: CAKI-1 > 100 µM | SK-MEL-2 > 100 µM | A498 > 100 µM | SK-OV-3 > 100 µM | HCT-116 > 100 µM | NCI-H522 > 100 µM | SF-268 > 100 µM | UACC-257 > 100 µM | IGROV-1 > 100 µM | UACC-62 > 100 µM | HT-29 > 100 µM | OVCAR-8 > 100 µM | SF-295 > 100 µM | SK-MEL-28 > 100 µM | HOP-92 > 100 µM | COLO 205 > 100 µM | NCI-H226 > 100 µM

Oc1c2c(nc3cc4c(cc13)OCO4)-c1ccccc1CC2
inactive: SK-MEL-2 > 100 µM | A498 > 100 µM | HCT-116 > 100 µM | SF-268 > 100 µM | UACC-257 > 100 µM | IGROV-1 > 100 µM | UACC-62 > 100 µM | HT-29 > 100 µM | OVCAR-8 > 100 µM | SF-295 > 100 µM | SK-MEL-28 > 100 µM | COLO 205 > 100 µM | NCI-H226 > 100 µM

From ChEMBL document CHEMBL1201862, “PubChem BioAssay data set” (2004)
